Article PMC6668346 (Journal of medicinal chemistry, 2018)
Several values for one entry are separate records, joined by “and”; a condition that tells them apart may be missing. Identical values can stand only once.

Target: T1, human LAT1 (Homo sapiens, UniProt Q01650)
T1 sequence (Q01650 whole entry): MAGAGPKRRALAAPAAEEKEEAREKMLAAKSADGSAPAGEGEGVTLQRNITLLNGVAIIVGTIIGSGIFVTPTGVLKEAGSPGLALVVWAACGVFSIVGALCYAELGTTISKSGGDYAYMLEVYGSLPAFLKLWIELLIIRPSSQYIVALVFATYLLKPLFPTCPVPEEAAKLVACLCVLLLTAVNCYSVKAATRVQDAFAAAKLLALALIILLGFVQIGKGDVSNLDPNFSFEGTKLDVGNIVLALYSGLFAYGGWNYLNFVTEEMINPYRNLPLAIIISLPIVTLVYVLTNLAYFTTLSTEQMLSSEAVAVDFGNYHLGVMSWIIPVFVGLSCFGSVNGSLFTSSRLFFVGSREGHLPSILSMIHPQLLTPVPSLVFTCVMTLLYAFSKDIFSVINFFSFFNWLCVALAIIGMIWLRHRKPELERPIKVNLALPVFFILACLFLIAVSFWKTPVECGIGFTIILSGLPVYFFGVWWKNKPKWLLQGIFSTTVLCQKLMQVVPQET
T1 sequence (P08195 102-630 partner): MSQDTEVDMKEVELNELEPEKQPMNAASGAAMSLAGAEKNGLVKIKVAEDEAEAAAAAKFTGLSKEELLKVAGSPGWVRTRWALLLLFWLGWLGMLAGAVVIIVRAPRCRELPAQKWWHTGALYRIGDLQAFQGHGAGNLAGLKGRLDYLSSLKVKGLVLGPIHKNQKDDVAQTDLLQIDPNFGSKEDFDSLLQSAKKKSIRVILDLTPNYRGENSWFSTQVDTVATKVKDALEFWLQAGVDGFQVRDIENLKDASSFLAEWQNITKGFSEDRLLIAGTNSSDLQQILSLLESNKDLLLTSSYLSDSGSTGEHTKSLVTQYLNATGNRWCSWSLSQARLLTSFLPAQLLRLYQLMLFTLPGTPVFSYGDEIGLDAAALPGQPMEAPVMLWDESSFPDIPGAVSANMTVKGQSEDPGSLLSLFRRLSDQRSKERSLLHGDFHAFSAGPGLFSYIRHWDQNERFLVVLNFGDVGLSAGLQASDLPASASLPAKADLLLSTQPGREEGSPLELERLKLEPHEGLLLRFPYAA
Assay: not given
Assay type: cell-based
Conditions: 200 μM, 3 min; average of seven experiments
For `N[C@@H](Cc1ccccc1)C(=O)O` [Compound 50, L-phenylalanine, reference compound], the “efflux rate of [3H]-gabapentin” value was 2.7 fmol/min and 2.7 ± 0.3 fmol/min.

Same assay, conditions: based on trans-stimulation assay
For `COC(=O)c1cccc(C[C@@H](N)C(=O)O)c1` [Compound 79-D], the “LAT1 substrate activity (in words)” value was “potentially not a substrate”. In the case of `CSCC[C@@](N)(Cc1ccccc1)C(=O)O` [Compound 98-D], the “LAT1 substrate activity (in words)” value was “lost all activity”. With `NCc1cccc(C[C@H](N)C(=O)O)c1` [Compound 74] the “LAT1 substrate activity (in words)” value was “LAT1 substrates”. In the case of `Cc1cc(C[C@H](N)C(=O)O)cc(C(=O)O)c1` [Compound 64], the “LAT1 substrate activity (in words)” value was “lost activity relative to their parent compounds”. In the case of `N[C@@H](Cc1cccc(C(=O)OCCO)c1)C(=O)O` [Compound 82], the “LAT1 substrate activity (in words)” value was “substrates of LAT1”. In the case of `COC(=O)c1cc(C)cc(C[C@H](N)C(=O)O)c1` [Compound 63], the “LAT1 substrate activity (in words)” value was “lost activity relative to their parent compounds”. For `N[C@@H](Cc1cccc(CC(=O)O)c1)C(=O)O` [Compound 84], the “LAT1 substrate activity (in words)” value was “nonsubstrates”. For `CC(N)(Cc1ccccc1)C(=O)O` (stereo in doubt) [Compound 92-D, α-methyl phenylalanine], the “LAT1 substrate activity (in words)” value was “substrates”. With `CC(C)(C)OC(=O)c1cccc(C[C@H](N)C(=O)O)c1` [Compound 81] the “LAT1 substrate activity (in words)” value was “substrates of LAT1”. For `N[C@@](Cc1ccccc1)(Cc1c[nH]cn1)C(=O)O` [Compound 107], the “LAT1 substrate activity (in words)” value was “inactive”. In the case of `N[C@@H](CCC(=O)O)C(=O)O` [Compound 57, L-Glu, reference compound], the “LAT1 substrate activity (in words)” value was “none of which were LAT1 substrates”. In the case of `C[C@](N)(Cc1ccccc1)C(=O)O` [Compound 92, α-methyl phenylalanine], the “LAT1 substrate activity (in words)” value was “substrates”. For `NC(Cc1ccccc1)(Cc1ccccc1)C(=O)O` [Compound 93], the “LAT1 substrate activity (in words)” value was “inactive”. With `NCCCC[C@H](N)C(=O)O` [Compound 55, L-Lys, reference compound] the “LAT1 substrate activity (in words)” value was “none of which were LAT1 substrates”. For `N[C@@H](Cc1cn(Cc2ccccc2)cn1)C(=O)O` [Compound 59, benzyl histidine], the “LAT1 substrate activity (in words)” value was “substrates”. With `N[C@@H](Cc1cccc(C(=O)O)c1)C(=O)O` [Compound 83] the “LAT1 substrate activity (in words)” value was “LAT1 substrates”.

Target: T1, human LAT1
Assay: cis-inhibition assay: inhibition of [3H]-gabapentin uptake into HEK-hLAT1 cells
Assay type: cell-based
Conditions: L vs D isomer
In the case of `CC(C)[C@H](N)C(=O)O` [Compound 49, L-Val], the “selectivity for the L isomers in cis-inhibition assay” value (“selectivity … in cis-inhibition assay” for short) was > 20 fold. For `CC[C@H](C)[C@H](N)C(=O)O` [Compound 47, L-Ile], the “selectivity … in cis-inhibition assay” value was > 20 fold. With `N[C@@H](Cc1c[nH]cn1)C(=O)O` [Compound 53, L-histidine] the “selectivity … in cis-inhibition assay” value was > 20 fold.

Same assay, conditions: cis-inhibition
With `N[C@@H](Cc1cccc(Cc2ccccc2)c1)C(=O)O` [Compound 69] the “LAT1 ligand potency / affinity (in words)” value was “the most potent ligands”. For `N[C@@H](Cc1cccc(-c2ccccc2)c1)C(=O)O` [Compound 70], the “LAT1 ligand potency / affinity (in words)” value was “the most potent ligands”.

System: LAT1
Assay: not given
Conditions: Xenopus laevis oocytes; cited from earlier work
For `N[C@@H](Cc1ccccc1)C(=O)O` [Compound 50, L-phenylalanine, reference compound], the Km is listed as 14.2 µM. For `N[C@H](Cc1ccccc1)C(=O)O` [Compound 50-D, D-Phe], the Km is given as 121 µM.
